Test results reported in patent US6919306B2, “Method of skin care” (Yaizu Suisankagaku Industry Co. Ltd., priority 1999, dated 2005).
Marks after values point to notes of the source that are not given here.

How the values were obtained:
[1] = test system: skin surface; assay: Microscopic three-dimensional skin surface analysis (VISIOSCAN); assay type: in vivo, human; design: key to SEsc (Ideal value: Lowest value), Below left eye / SEsc (Ideal value: Lowest value), Left upper arm: SEsc = I/(Nx×Ny)×100; lower = more moist, less scaling; key to SEsm (Ideal value: Lowest value), Left upper arm / SEsm (Ideal value: Lowest value), Below left eye: SEsm = (Co−Cu)×(Fmx−Fmy)×K; lower = smoother skin; SWw (Ideal value: Lowest value), Below left eye / SWw (Ideal value: Lowest value), Left upper arm: scale not given here; settings: for Kurtosis (Ideal value: 0), Below left eye / Kurtosis (Ideal value: 0), Left upper arm / Kurtosis (Ideal value: 0), Poll / SEr (Ideal value: Lowest value), Below left eye / SEr (Ideal value: Lowest value), Left upper arm / SEr (Ideal value: Lowest value), Poll / SEsc (Ideal value: Lowest value), Below left eye / SEsc (Ideal value: Lowest value), Left upper arm / SEsc (Ideal value: Lowest value), Poll / SEsm (Ideal value: Lowest value), Below left eye / SEsm (Ideal value: Lowest value), Left upper arm / SEsm (Ideal value: Lowest value), Poll / SWw (Ideal value: Lowest value), Below left eye / SWw (Ideal value: Lowest value), Left upper arm / SWw (Ideal value: Lowest value), Poll: NAG 1,000 mg/day oral; for SEr (Ideal value: Lowest value), Below left eye / SEr (Ideal value: Lowest value), Left upper arm / SEr (Ideal value: Lowest value), Poll: skin roughness; for SEsc (Ideal value: Lowest value), Below left eye / SEsc (Ideal value: Lowest value), Left upper arm / SEsc (Ideal value: Lowest value), Poll: skin scaliness; for SEsm (Ideal value: Lowest value), Below left eye / SEsm (Ideal value: Lowest value), Left upper arm / SEsm (Ideal value: Lowest value), Poll: skin smoothness; for SWw (Ideal value: Lowest value), Below left eye / SWw (Ideal value: Lowest value), Left upper arm / SWw (Ideal value: Lowest value), Poll: skin wrinkles
Experimental: (§1) To 22 females usually having a tendency of xeroderma and rough skin (average age: 25.5±10.7), a double blind long-term ingestion study was carried out in the following manners provided that a […] were given to a control group.
(§2) NAG-containing tablets-administered group (NAG group, n=11): Tablets prepared similarly as in Example 1 as described below (NAG amount: 200 mg/tablet), were ingested at a rate of 5 tablets/day (NAG 1,000 mg/day, as a daily dose).
(§3) The ingestion period was 8 weeks in each group. The inspection was in principle carried out just before the start of ingestion, 4 weeks after the start of ingestion, and just before the completion of ingestion (8 weeks after the start of ingestion).
This analysis was conducted by using a digital analyzer of the skin surface (VISIONSCAN: manufactured by Courage+Khazaka Electronic Gmbh). In use of this apparatus, the skin surface was irradiated with special ultraviolet ray source, and the image is taken by a high performance CCD camera and digitalized for evaluation. The following factors were sampled as parameters.
This value is calculated from the average of the width and depth of wrinkles by the following formula (i), and one of indices which show the smoothness of skin. The smaller this value is, the smoother the skin surface is. SEsm=(Co−Cu)×(Fmx−Fmy)×K (i) • Fmx: average width of furrows for the row analysis. • Fmy: average width of furrows for the column analysis. • Co: right frontier of the histogram whose calculation is based on a set-up values. • Cu: left frontier of the histogram whose calculation is based on a set-up values. • K: factor
This value is obtained by calculating the ratio of points darker than the set-up points in the whole image and further calculating by the following formula (ii), and one of indices which show the roughness of skin. The higher the value is, the rougher the skin is. SEr=I/(Nx×Ny)×100 (ii) • I: counter whose start value is 0 and which is incremented each time the gray value of the current point is smaller than the threshold issued from the set-up programs. • Nx: amount of point per row. • Ny: amount of point per column.
Epidermolysis parts are counted to be brighter than the set-up values in the image. The SEsc value is obtained by calculating the ratio of these parts relative to the entire part by the following formula (iii), and is one of indices which show the dryness of scale (corneum). The lower the value is, the more moist and the less epidermolysis (scale). SEsc=I/(Nx×Ny)×100 (iii) • I: counter whose start value is 0 and which is incremented each time the gray value of the current point is bigger than the threshold issued from the set-up programs. • Nx: amount of point per row. • Ny: amount of point per column.
The higher the value is, the more the number of wrinkle is and the wider the width of wrinkles is. SEw=Fmx×Fmy/(Fax×Fay)×Fay/Fax×K (iv) • Fax: amount of furrows for the row analysis. • Fmx: average width of furrows for the row analysis. • Fay: amount of furrows for the column analysis. • Fmy: average width of furrows for the column analysis. • K: factor
The closer to 0 the value is, the smoother in curve the hue point is and the closer to ideal skin.

[2] = test system: skin surface acidity; assay: Skin acidity (pH) by PH 900; assay type: in vivo, human; settings: NAG 1,000 mg/day oral
Experimental: as §1, §2, §3
The acidity was measured by using PH 900 (manufactured by Courage+Khazaka Electronic Gmbh). In use of this apparatus, an electrode is contacted to a skin surface through an ion-permeable membrane neighboring to a glass membrane and the acidity can be measured without electrochemical invasion. In this connection, the optimum pH of female's skin is about 5.5.
Measurement sites were 1 cm below the left eye, medial part of left upper arm (3 cm above the elbow), and poll (3 cm below spinous process of neck). With respect to the oil and fat content, since most subjects were scored at 0 at the left upper arm and the poll, only the site below the left eye was measured from the 2nd inspection.
In order to keep the environments for the measurements as equal as possible, a room having its internal conditions adjusted to be constant was prepared before the measurements (room temperature: 18 to 20° C., humidity: 45 to 60%), and the subjects were asked to keep in rest in this room for at least 30 minutes. Further, with respect to the makeup at the measurement site, it was in principle prohibited to put on makeup from 60 minutes before the inspection.

CC(=O)N[C@H]1C(O)O[C@H](CO)[C@@H](O)[C@@H]1O (stereo partly shown) [NAG, N-acetylglucosamine]
Kurtosis (Ideal value: 0), Below left eye ([1]; after 4 weeks): 0.34 | Kurtosis (Ideal value: 0), Left upper arm ([1]; after 4 weeks): 0.40 | Kurtosis (Ideal value: 0), Poll ([1]; after 4 weeks): 0.39 | Kurtosis (Ideal value: 0), Below left eye ([1]; after 8 weeks): 0.30 | Kurtosis (Ideal value: 0), Left upper arm ([1]; after 8 weeks): 0.50 | Kurtosis (Ideal value: 0), Poll ([1]; after 8 weeks): 0.39 | Kurtosis (Ideal value: 0), Below left eye ([1]; before ingestion): 0.58 | Kurtosis (Ideal value: 0), Left upper arm ([1]; before ingestion): 0.97 | Kurtosis (Ideal value: 0), Poll ([1]; before ingestion): 0.79 | SEsm value and SEsc value at the poll, change ([1]; NAG group, 1,000 mg/day oral, 8 weeks): significant decrease | SEr (Ideal value: Lowest value), Below left eye ([1]; after 4 weeks): 0.26 | SEr (Ideal value: Lowest value), Left upper arm ([1]; after 4 weeks): 0.22 | SEr (Ideal value: Lowest value), Poll ([1]; after 4 weeks): 0.32 | SEr (Ideal value: Lowest value), Below left eye ([1]; after 8 weeks): 0.21 | SEr (Ideal value: Lowest value), Left upper arm ([1]; after 8 weeks): 0.28 | SEr (Ideal value: Lowest value), Poll ([1]; after 8 weeks): 0.40 | SEr (Ideal value: Lowest value), Below left eye ([1]; before ingestion): 0.25 | SEr (Ideal value: Lowest value), Left upper arm ([1]; before ingestion): 0.30 | SEr (Ideal value: Lowest value), Poll ([1]; before ingestion): 0.51 | SEsc (Ideal value: Lowest value), Below left eye ([1]; after 4 weeks): 137.0 | SEsc (Ideal value: Lowest value), Left upper arm ([1]; after 4 weeks): 195.8 | SEsc (Ideal value: Lowest value), Poll ([1]; after 4 weeks): 201.6 | SEsc (Ideal value: Lowest value), Below left eye ([1]; after 8 weeks): 133.0 | SEsc (Ideal value: Lowest value), Left upper arm ([1]; after 8 weeks): 202.4 | SEsc (Ideal value: Lowest value), Poll ([1]; after 8 weeks, p < 0.05): 169.3* | SEsc (Ideal value: Lowest value), Below left eye ([1]; before ingestion): 238.4 | SEsc (Ideal value: Lowest value), Left upper arm ([1]; before ingestion): 342.9 | SEsc (Ideal value: Lowest value), Poll ([1]; before ingestion): 352.4 | SEsm (Ideal value: Lowest value), Below left eye ([1]; after 4 weeks): 337.6 | SEsm (Ideal value: Lowest value), Left upper arm ([1]; after 4 weeks): 324.7 | SEsm (Ideal value: Lowest value), Poll ([1]; after 4 weeks, p < 0.05): 338.9* | SEsm (Ideal value: Lowest value), Below left eye ([1]; after 8 weeks): 309.4 | SEsm (Ideal value: Lowest value), Left upper arm ([1]; after 8 weeks): 379.9 | SEsm (Ideal value: Lowest value), Poll ([1]; after 8 weeks, p < 0.05): 345.2* | SEsm (Ideal value: Lowest value), Below left eye ([1]; before ingestion): 378.1 | SEsm (Ideal value: Lowest value), Left upper arm ([1]; before ingestion): 384.7 | SEsm (Ideal value: Lowest value), Poll ([1]; before ingestion): 443.8 | SWw (Ideal value: Lowest value), Below left eye ([1]; after 4 weeks): 29.0 | SWw (Ideal value: Lowest value), Left upper arm ([1]; after 4 weeks): 26.4 | SWw (Ideal value: Lowest value), Poll ([1]; after 4 weeks): 23.4 | SWw (Ideal value: Lowest value), Below left eye ([1]; after 8 weeks): 27.8 | SWw (Ideal value: Lowest value), Left upper arm ([1]; after 8 weeks): 31.9 | SWw (Ideal value: Lowest value), Poll ([1]; after 8 weeks): 29.5 | SWw (Ideal value: Lowest value), Below left eye ([1]; before ingestion): 33.2 | SWw (Ideal value: Lowest value), Left upper arm ([1]; before ingestion): 30.2 | SWw (Ideal value: Lowest value), Poll ([1]; before ingestion): 27.3 | Acidity (pH), Below left eye ([2]; after 4 weeks): 5.7 ± 0.5 pH | Acidity (pH), Left upper arm ([2]; after 4 weeks): 5.6 ± 0.3 pH | Acidity (pH), Poll ([2]; after 4 weeks): 5.4 ± 0.3 pH | Acidity (pH), Below left eye ([2]; after 8 weeks): 5.8 ± 0.4 pH | Acidity (pH), Left upper arm ([2]; after 8 weeks): 5.7 ± 0.4 pH | Acidity (pH), Poll ([2]; after 8 weeks): 5.3 ± 0.4 pH | Acidity (pH), Left upper arm ([2]; before ingestion): 5.5 ± 0.3 pH | Acidity (pH), Poll ([2]; before ingestion): 5.7 ± 1.1 pH | Acidity (pH), Below left eye ([2]; before ingestion, optimum pH about 5.5): 6.0 ± 1.0 pH
